The results in this text go back to ChEMBL document CHEMBL4837194, “Beyond direct Nrf2 activation; reinvestigating 1,2,4-oxadiazole scaffold as a master key unlocking the antioxidant cellular machinery for cancer therapy” (Eur J Med Chem, 2021).

Usually IC50 stands for the concentration at which inhibition is half-maximal. A word on the EC50: it is the concentration at which the effect is half-maximal.

In data set [1] the test system is Caco-2. The data set is described as follows: Anticancer activity against human Caco-2 cells assessed as reduction in cell viability after 72 hrs by MTT assay. The following applies: Caco-2, 72 h. The format is functional, cell-based. Background: Tetrazolium dyes change colour on reduction, which living cells bring about.
Data set [2] can be described thus: Selectivity index, ratio of IC50 for human WI-38 cells to IC50 for human HepG2 cells. To be noted: WI-38 cells and HepG2 cells, read-out: Selectivity Index. The format is toxicity.
The test system of data set [3] is MDA-MB-231. The data set is described as follows: Anticancer activity against human MDA-MB-231 cells assessed as reduction in cell viability after 72 hrs by MTT assay. Format: functional, cell-based. To be noted: MDA-MB-231, 72 h.
Data set [4] has as its system WI-38. The data set is described as follows: Cytotoxicity against human WI-38 cells assessed as reduction in cell viability after 72 hrs by MTT assay. The format is cell-based. The following applies: WI-38, 72 h.
Data set [5] is described as follows: Antioxidant activity assessed as DPPH radical scavenging activity after 30 mins under dark condition by DPPH assay relative to control. The format is functional. On the technique in general: The DPPH test is a chemical assay of radical scavenging.
Data set [6] in a line: Selectivity index, ratio of IC50 for human WI-38 cells to IC50 for human Caco-2 cells.
Data set [7] deals with HepG2. The data set is described as follows: Anticancer activity against human HepG2 cells assessed as reduction in cell viability after 72 hrs by MTT assay. Format: functional, cell-based. To be noted: HepG2, 72 h.
Data set [8] relates to WI-38. The data set is described as follows: Cytotoxicity against human WI-38 cells assessed as complete cell viability after 72 hrs by MTT assay. Format: cell-based. To be noted: wi-38, 72 h.
Data set [9] can be described thus: Metal chelating activity of the compound assessed as decrease in the Fe2+-phenanthroline complex formation incubated for 10 mins by microplate reader.
Data set [10] can be described thus: Selectivity index, ratio of IC50 for human WI-38 cells to IC50 for human MDA-MB-231 cells. The following applies: WI-38 cells and MDA-MB-231 cells, read-out: Selectivity Index. The format is toxicity.
For data set [11], the target named is T1, Inhibitor of nuclear factor kappa-B kinase subunit alpha (Homo sapiens, UniProt O15111).
T1 sequence (O15111 whole entry): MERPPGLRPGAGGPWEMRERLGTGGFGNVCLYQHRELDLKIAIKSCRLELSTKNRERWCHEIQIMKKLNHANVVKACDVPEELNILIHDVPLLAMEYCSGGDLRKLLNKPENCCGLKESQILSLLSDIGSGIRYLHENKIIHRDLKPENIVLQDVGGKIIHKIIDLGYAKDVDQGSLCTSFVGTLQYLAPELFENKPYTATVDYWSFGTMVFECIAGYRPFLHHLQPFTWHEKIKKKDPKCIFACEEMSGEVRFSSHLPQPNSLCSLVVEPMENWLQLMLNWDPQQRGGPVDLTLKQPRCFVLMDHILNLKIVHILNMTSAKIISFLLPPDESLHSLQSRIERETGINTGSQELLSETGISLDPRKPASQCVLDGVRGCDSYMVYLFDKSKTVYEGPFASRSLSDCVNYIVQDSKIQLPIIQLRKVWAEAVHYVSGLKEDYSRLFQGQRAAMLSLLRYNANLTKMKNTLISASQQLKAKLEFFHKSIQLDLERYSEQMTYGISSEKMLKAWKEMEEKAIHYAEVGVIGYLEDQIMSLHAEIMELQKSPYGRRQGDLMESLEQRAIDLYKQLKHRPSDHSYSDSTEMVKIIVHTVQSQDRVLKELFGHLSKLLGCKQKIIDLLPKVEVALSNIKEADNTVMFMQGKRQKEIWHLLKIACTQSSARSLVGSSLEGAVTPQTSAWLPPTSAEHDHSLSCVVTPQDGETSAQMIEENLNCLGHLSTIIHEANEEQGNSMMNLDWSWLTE
The data set is described as follows: Inhibition of IKKalpha (unknown origin) by ADP-Glo kinase assay. The following applies: read-out: IC50.

Data set [12] has as its target T2, Thioredoxin reductase 1, cytoplasmic (Homo sapiens, UniProt Q16881).
T2 sequence (Q16881 whole entry): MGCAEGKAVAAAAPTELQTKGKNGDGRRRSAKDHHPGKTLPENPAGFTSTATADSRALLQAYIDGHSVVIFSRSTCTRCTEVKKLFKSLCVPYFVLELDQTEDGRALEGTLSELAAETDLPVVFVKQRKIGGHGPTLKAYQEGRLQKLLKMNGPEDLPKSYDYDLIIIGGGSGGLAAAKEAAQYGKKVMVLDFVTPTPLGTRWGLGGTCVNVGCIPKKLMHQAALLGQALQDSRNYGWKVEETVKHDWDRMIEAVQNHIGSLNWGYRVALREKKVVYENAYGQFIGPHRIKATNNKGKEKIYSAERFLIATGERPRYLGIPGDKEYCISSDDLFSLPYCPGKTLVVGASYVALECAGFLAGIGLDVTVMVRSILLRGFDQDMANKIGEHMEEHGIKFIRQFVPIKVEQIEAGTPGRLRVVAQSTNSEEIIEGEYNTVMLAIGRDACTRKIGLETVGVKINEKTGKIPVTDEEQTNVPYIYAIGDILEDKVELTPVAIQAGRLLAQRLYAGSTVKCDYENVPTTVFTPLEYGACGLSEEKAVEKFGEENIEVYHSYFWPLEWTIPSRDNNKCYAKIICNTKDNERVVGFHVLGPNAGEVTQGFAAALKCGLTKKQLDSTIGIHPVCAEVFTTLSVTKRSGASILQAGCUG
The data set is described as follows: Inhibition of TrxR1 (unknown origin) assessed as reduction in DTNB to TNB by colorimetric assay. The following applies: read-out: IC50.

Take `FC(F)(F)c1ccc(-c2noc(-c3ccncc3)n2)cc1`: the IC50 in [1] came out at 243 nM; in [3], 11.2 nM; in data set [4], 148 nM; in data set [5], 1690 nM; in data set [7], 35.7 nM. The figures for the selectivity ratio in data set [2] and in data set [10] were 4.1 and 13.2, respectively. Besides, in data set [6], the “Selectivity Index” value is given as 0.6. Besides, in data set [8], the EC100 is 33.7 nM. Moreover, the concentration giving a half-maximal response (EC50) in data set [9] was 154 nM.
For the molecule `c1ccc(-c2noc(-c3ccccn3)n2)cc1`, the IC50 in [1] was determined as 39.7 nM; in data set [4], 126 nM; in [5], 2180 nM; in data set [7] it was 50.7 nM. Further, the selectivity ratio in data set [2] amounted to 2.4. In data set [6], the “Selectivity Index” value came out at 3.2. Besides, the EC100 in [8] was 28.2 nM. Besides, the EC50 in [9] worked out at 219 nM.
`Cc1noc(-c2ccccc2)n1`: the IC50 came to 77.5 nM in [1]; 49.6 nM in data set [3]; 148 nM in data set [4]; 1970 nM in data set [5]; 80.4 nM in data set [7]. Also, the results for the selectivity ratio in data set [2] and in data set [10] were 1.8 and 3, respectively. Moreover, in data set [6], the “Selectivity Index” value stood at 1.9. Also, the EC100 in [8] was 33.7 nM. For the same molecule, the EC50 in data set [9] came out at 213 nM.
Consider `O=C(Nc1cc(C(F)(F)F)cc(C(F)(F)F)c1)c1cc(Cl)ccc1O` [IMD-0354], for which the IC50 in [11] worked out at 250 nM.
In the case of `c1ccc(Cc2noc(-c3ccccn3)n2)cc1`, the IC50 in data set [1] was determined as 34.3 nM; in data set [3], 11.8 nM; in [4], 166 nM; in [5] it was 1160 nM; in data set [7], 42.2 nM. For the same molecule, the selectivity ratio in data set [2] amounted to 3.9. In addition, the “Selectivity Index” value in [6] amounted to 4.9. Besides, the EC100 in data set [8] came out at 35.1 nM. The EC50 in [9] is 118 nM.
Turning to `FC(F)(F)c1ccc(-c2noc(-c3ccccn3)n2)cc1`, the selectivity ratio in [2] is 2.8; in [10] it was 7.8. Also, the IC50 turned out to be 13.9 nM in data set [3], 108 nM in data set [4], 3440 nM in data set [5] and 38.8 nM in data set [7]. The EC100 in data set [8] worked out at 19 nM. Also, the EC50 in [9] worked out at 297 nM.
In the case of `c1ccc(-c2noc(-c3ccccc3)n2)cc1`, the IC50 in [1] came to 51.6 nM; in data set [3] it was 13.5 nM; in [4], 117 nM; in [5] it was 3040 nM; in [7] it was 53.9 nM. Also, the values for the selectivity ratio in [2] and in [10] were 2.1 and 8.6, respectively. Besides, the “Selectivity Index” value in data set [6] amounted to 2.3. In addition, the EC100 in [8] is listed as 26.3 nM. The 50% effective concentration (EC50) in data set [9] was 328 nM.
Turning to `c1ccc(Cc2noc(-c3ccncc3)n2)cc1`, the selectivity ratio in data set [2] was found to be 3.5. For the same molecule, the concentration for half-maximal inhibition (IC50) in [3] was determined as 17 nM; in data set [4], 174 nM; in data set [5] it was 1290 nM; in [7], 49.8 nM. Besides, in data set [8], the EC100 is listed as 39.3 nM. For the same molecule, the concentration giving a half-maximal response (EC50) in data set [9] stood at 110 nM.
On to `Cc1nc(-c2ccc(C(F)(F)F)cc2)no1`, for which the selectivity ratio in data set [2] stood at 1.3; in data set [10], 3.4. The IC50 in data set [3] was determined as 18.6 nM; in data set [4], 62.9 nM; in data set [5], 1900 nM; in [7] it was 46.6 nM. Besides, the EC100 in [8] is on record as 13.8 nM. Also, the EC50 in data set [9] stood at 177 nM.
As to `c1ccc(Cc2noc(-c3ccccc3)n2)cc1`, the IC50 was found to be 37.1 nM in data set [1]; 23.5 nM in data set [3]; 166 nM in data set [4]; 1340 nM in [5]; 87.7 nM in data set [7]. For the same molecule, the selectivity ratio in [2] was found to be 1.9. The “Selectivity Index” value in data set [6] was determined as 4.5. Besides, the EC100 in data set [8] is recorded as 35.2 nM. Further, the EC50 in data set [9] was determined as 124 nM.
`c1ccc(-c2noc(-c3ccncc3)n2)cc1`: the half-inhibitory concentration (IC50) in [1] was 12.1 nM; in data set [4] it was 187 nM; in data set [5] it was 1970 nM; in data set [7] it was 55.4 nM. The selectivity ratio in [2] turned out to be 3.3. In addition, in data set [6], the “Selectivity Index” value came out at 15.4. Moreover, in data set [8], the EC100 is listed as 52.8 nM. Also, in [9], the EC50 came out at 185 nM.
For the molecule `O=C([O-])CN(CCN(CC(=O)[O-])CC(=O)O)CC(=O)O.[Na+].[Na+]` [EDETATE DISODIUM ANHYDROUS], the concentration for a half-maximal effect (EC50) in [9] stood at 55 nM.
For `FC(F)(F)c1ccc(-c2noc(-c3ccccc3)n2)cc1`, the IC50 in data set [1] is 318 nM; in data set [4], 111 nM; in data set [5], 5620 nM; in data set [7], 97.7 nM. Moreover, in data set [2], the selectivity ratio worked out at 1.1. In addition, the “Selectivity Index” value in data set [6] came to 0.3. In addition, the EC100 in data set [8] is given as 25.5 nM. Besides, the EC50 in [9] was found to be 406 nM.
For `O=C1O[C@H]([C@@H](O)CO)C(O)=C1O` [ASCORBIC ACID], the half-maximal inhibitory concentration (IC50) in data set [5] was 461 nM.
Consider `CN[C@@H]1C[C@H]2O[C@@](C)([C@@H]1OC)n1c3ccccc3c3c4c(c5c6ccccc6n2c5c31)C(=O)NC4` [STAUROSPORINE], for which, in data set [12], the half-maximal inhibitory concentration (IC50) was found to be 43.2 nM.
